Measured values reported in patent US20100120700A1, “METHODS AND COMPOSITIONS FOR TREATING CERVICAL CANCER” (priority 2000, published 2010).
“And” between values parts separate entries of the source, which are not always exact repeats. Identical values can stand only once.

Assays:
Assay in all cases: G assay PDZ-PL binding
Conditions in all cases: peptide 10 uM, protein 5
[1] = system: FLJ00011 domain 1; set-up: species or system human
Protocol: (§1) (1) A PDZ-domain polypeptide is bound to a surface, e.g. a protein binding surface. In a preferred embodiment, a GST/PDZ fusion protein containing one or more PDZ domains is bound to a polystyrene 96-well plate. […] In one embodiment, the GST/PDZ fusion protein is bound via an anti-GST antibody that is coated onto the 96-well plate. Adequate binding to the plate can be achieved when: • a. 100 uL per well of 5 ug/mL goat anti-GST polyclonal antibody (Pierce) in PBS is added to a polystyrene 96-well plate (e.g., Num Polysorb) at 4° C. for 12 hours. • b. The plate is blocked by addition of 200 uL per well of PBS/BSA for 2 hours at 4° C. • c. The plate is washed 3 times with PBS. • d. 50 uL per well of 5 ug/mL GST/PDZ fusion protein) or, as a negative control, GST polypeptide alone (i.e. not a fusion protein) in PBS/BSA is added to the plate for 2 hours at 4° C. • e. The plate is again washed 3 times with PBS. […]
(§2) (3) The binding of the biotinylated peptide to the GST/PDZ fusion protein surface can be detected using a variety of methods and detectors known to one of skill in the art. In one embodiment, 100 uL per well of 0.5 ug/mL streptavidin-horse radish peroxidase (HRP) conjugate dissolved in BSA/PBS is added and allowed to react for 20 minutes at 4° C. The plate is then washed 5 times with 50 mM Tris pH 8.0 containing 0.2% Tween 20, and developed by addition of 100 uL per well of HRP-substrate solution (TMB, Dako) for 20 minutes at room temperature (RT). The reaction of the HRP and its substrate is terminated by addition of 100 uL per well of 1M sulfuric acid, and the absorbance of each well of the plate is read at 450 nm.
(§3) (4) Specific binding of a PL peptide and a PDZ domain polypeptide is determined by comparing the signal from the well(s) in which the PL peptide and PDZ domain polypeptide are combined, with the background signal(s). The background signal is the signal found in the negative control(s). Typically a specific or selective reaction will be at least twice background signal, more typically more than 5 times background, and most typically 10 or more times the background signal. In addition, a statistically significant reaction will involve multiple measurements of the reaction with the signal and the background differing by at least two standard errors, more typically four standard errors, and most typically six or more standard errors. Correspondingly, a statistical test (e.g. a T-test) comparing repeated measurements of the signal with-repeated measurements of the background will result in a p-value<0.05, more typically a p-value<0.01, and most typically a p-value<0.001 or less. As noted, in an embodiment of the “G” assay, the signal from binding of a given PL peptide to immobilized (surface bound) GST polypeptide alone is one suitable negative control (sometimes referred to as “B 1”). Because all measurement are done in multiples (i.e. at least duplicate) the arithmetic mean (or, equivalently, average.) of several measurements is used in determining the binding, and the standard error of the mean is used in determining the probable error in the measurement of the binding. The standard error of the mean of N measurements equals the square root of the following: the sum of the squares of the difference between each measurement and the mean, divided by the product of (N) and (N−1). Thus, in one embodiment, specific binding of the PDZ protein to the platebound peptide is determined by comparing the mean signal (“mean S”) and standard error of the signal (“SE”) for a particular PL-PDZ combination with the mean B1.
(§4) For convenience, the assay conditions described in this section are referred to as the “G’ assay” and the “G” assay,” with the specific conditions described in the preceding section on G assays being referred to as the “G° assay.” The “G′ assay” is identical to the “G° assay” except at step (2) the peptide concentration is 10 uM instead of 20 uM. […]

[2] = system: DLG-6 #333.1 domain 1; set-up: species or system human
Protocol: as §1, §2, §3, §4

[3] = system: NSP #268.2 domain 1; set-up: species or system human
Protocol: as §1, §2, §3, §4

[4] = biological target: T1, Shroom domain 1 (Homo sapiens, UniProt Q8TF72)
T1 construct: made in house; host or cells: E. coli (DH5alpha or BL-21)
Summary of the method: (§5)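 Plate ELISA: anti-GST antibody coat, BSA block, then GST/PDZ fusion (GST alone as negative control). Biotinylated PL peptide 20 uM (10 uM in G′ variant) added, 10 min 4 °C plus 20 min 25 °C; streptavidin-HRP, TMB, absorbance 450 nm.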

[5] = biological target: T2, PSD95 domain 1 (Homo sapiens, UniProt P78352)
T2 construct: made in house; host or cells: E. coli (DH5alpha, BL21 or JM109), vector pGEX-3X
Summary of the method: as §5

[6] = biological target: T3, Densin domain 1 (Homo sapiens, UniProt Q96NW7)
T3 construct: made in house; host or cells: E. coli (DH5alpha or BL-21)
Summary of the method: as §5

[7] = biological target: T4, KIAA0147 domain 4 (Homo sapiens, UniProt Q14160)
T4 construct: made in house; host or cells: E. coli (DH5alpha, BL21 or JM109)
Summary of the method: as §5

[8] = biological target: T5, ERBIN domain 1 (Homo sapiens, UniProt Q96RT1)
T5 construct: made in house; host or cells: E. coli (DH5alpha, BL21 or JM109)
Summary of the method: as §5

[9] = biological target: T6, HEMBA 1003117 #226.2 domain 1 (Homo sapiens, UniProt Q96JH8)
T6 construct: made in house; host or cells: E. coli (DH5alpha, BL21 or JM109)
Summary of the method: as §5

[10] = biological target: T7, EBP50 #168.2 domain 2 (Homo sapiens, UniProt O14745)
T7 construct: made in house; host or cells: E. coli (DH5alpha, BL21 or JM109)
Summary of the method: as §5

[11] = biological target: T8, Shank 3 domain 1 (Homo sapiens, UniProt Q9BYB0)
T8 construct: made in house; host or cells: E. coli (DH5alpha or BL-21)
Summary of the method: as §5

T3 sequence (Q96NW7 1429-1537): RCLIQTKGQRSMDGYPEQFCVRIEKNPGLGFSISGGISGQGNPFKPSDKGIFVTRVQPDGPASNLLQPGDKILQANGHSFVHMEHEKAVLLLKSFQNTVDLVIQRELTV
T6 sequence (Q96JH8 969-1068): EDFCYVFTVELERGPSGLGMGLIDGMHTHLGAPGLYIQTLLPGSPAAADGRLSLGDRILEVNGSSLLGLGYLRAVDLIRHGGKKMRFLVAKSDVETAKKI
FLJ00011 domain 1, sequence (as listed by the source): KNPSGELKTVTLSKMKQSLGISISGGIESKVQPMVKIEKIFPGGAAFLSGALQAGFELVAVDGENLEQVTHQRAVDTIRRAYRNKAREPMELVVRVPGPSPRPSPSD
T4 sequence (Q14160 1099-1203): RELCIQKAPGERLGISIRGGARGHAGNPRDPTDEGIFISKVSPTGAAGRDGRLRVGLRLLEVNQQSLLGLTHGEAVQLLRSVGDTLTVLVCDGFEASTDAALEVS
T5 sequence (Q96RT1 1313-1412): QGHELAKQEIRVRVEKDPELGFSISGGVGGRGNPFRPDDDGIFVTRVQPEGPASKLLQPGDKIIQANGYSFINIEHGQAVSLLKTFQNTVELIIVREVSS
T8 sequence (Q9BYB0 638-747): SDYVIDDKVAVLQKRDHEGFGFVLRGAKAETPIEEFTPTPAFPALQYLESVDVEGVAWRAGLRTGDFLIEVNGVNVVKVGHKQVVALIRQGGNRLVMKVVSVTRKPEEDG
T1 sequence (Q8TF72 26-116): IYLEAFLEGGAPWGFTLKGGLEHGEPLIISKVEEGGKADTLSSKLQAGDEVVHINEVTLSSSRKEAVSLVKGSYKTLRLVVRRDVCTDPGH
T7 sequence (O14745 with tags, fused parts or gaps): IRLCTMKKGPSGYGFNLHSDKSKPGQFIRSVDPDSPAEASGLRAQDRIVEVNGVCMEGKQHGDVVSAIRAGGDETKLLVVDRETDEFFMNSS
T2 sequence (P78352 62-156): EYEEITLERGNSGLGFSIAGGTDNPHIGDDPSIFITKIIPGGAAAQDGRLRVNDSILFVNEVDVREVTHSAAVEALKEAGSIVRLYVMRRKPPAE

What does the source list for “20 mer peptide corresponding to the C-terminus of HPV16 E6 (PDZ ligand), biotinylated in binding assays; ends SSRTRRETQL (SEQ ID NO: 13) [HPV E6 #16]”?
Ave OD ([1]; A450 nm): 0.423 and 0.8185; OD S/N ([1]; vs GST only well): 2.90 and 3.97; Ave OD ([2]; A450 nm): 0.3495; OD S/N ([2]; vs GST only well): 2.04; Ave OD ([3]; A450 nm): 0.724; OD S/N ([3]; vs GST only well): 2.58; Ave OD ([4]; A450 nm): 0.361; OD S/N ([4]; vs GST only well): 3.25; Ave OD ([5]; A450 nm): 0.942; OD S/N ([5]; vs GST only well): 4.81; Ave OD ([6]; A450 nm): 0.4205 and 0.3505; OD S/N ([6]; vs GST only well): 1.96 and 1.82; Ave OD ([7]; A450 nm): 0.464 and 0.3795; OD S/N ([7]; vs GST only well): 2.17 and 2.34; Ave OD ([8]; A450 nm): 0.36 and 0.342; OD S/N ([8]; vs GST only well): 1.82 and 1.30; Ave OD ([9]; A450 nm): 0.36 and 0.477; OD S/N ([9]; vs GST only well): 1.66 and 2.27; Ave OD ([10]; A450 nm): 0.3455; OD S/N ([10]; vs GST only well): 1.99; Ave OD ([11]; A450 nm): 0.396; OD S/N ([11]; vs GST only well): 2.61
